Measured values: BindingDB's records for doi:10.1016/j.bmcl.2021.127992 (Kyung Hee University, 2021)

Biological target: T1, Prostaglandin E synthase (Homo sapiens, UniProt O14684)
T1 sequence (O14684 whole entry): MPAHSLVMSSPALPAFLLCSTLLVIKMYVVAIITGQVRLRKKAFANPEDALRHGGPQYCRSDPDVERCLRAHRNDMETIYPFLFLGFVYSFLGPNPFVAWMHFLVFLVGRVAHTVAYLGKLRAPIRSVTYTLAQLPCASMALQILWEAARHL
Assay: Inhibition of mPGES-1 in human A549 cells assessed as reduction in IL-1beta stimulated […] production

Row | IC50 [nM] | Compound
1 | 2000 | O=C(Oc1ccc(OCc2ccccc2)cc1)N(Cc1ccccc1)S(=O)(=O)c1ccc(Cl)cc1
2 | 250 | O=C(Oc1ccc(OCc2ccccc2)cc1)N(Nc1ccccc1)S(=O)(=O)c1ccc(Cl)cc1

Row | Compound | IC50 [nM]
3 | O=C(Nc1ccc(OCCCCc2ccccc2)cc1)N(Cc1ccccc1)S(=O)(=O)c1ccc(Cl)cc1 | 1000
